“Also recorded” adds a separate entry of the source.
Experiments:
RENCA cells [1] = experiment: Histological examination of agarose coated agarose beads containing RENCA cells one week after drug exposure; format: cell-based; set-up: key to Effect: −: no change; +: complete loss of cell viability; +/−: an intermediate effect; conditions: for Effect: histology one week following exposure; for Destruction of cells within the encapsulated tumor colonies: beads treated with the drug
Protocol: Agarose coated, agarose beads containing RENCA cells were prepared in accordance with Smith, et al., Canc Res., 71(3): 716-724 (2011); and Smith et al., Canc. Res. 71(3): 725-735 (2011), the disclosures of which are incorporated by reference. The resulting beads were cultured in medium for 12 weeks.
Samples of beads were then exposed to a single, known anti-cancer drug, at one of three varying concentrations. The exposure involved incubation of the beads in the presence of the drug for a period of time based upon the known, half life of the drug.
Following incubation, the beads were washed, twice, and transferred to naïve culture media. Controls were also prepared, which included untreated beads, as well as beads exposed to whatever vehicle was used to solubilize the drug.
Histological examination of the beads was undertaken one week following exposure to the drug. […]

RENCA cells [2] = experiment: 18 week culture of drug treated RENCA beads, sectioned and stained to count cell nuclei, normalized to DMSO treated beads; format: cell-based; conditions: for beads that developed 1 or 2 large colonies: week 18
Protocol: The Paclitaxel and Docetaxel treated beads were cultured, under standard conditions, as were control beads which had been exposed to DMSO, which was the vehicle for delivery of the two drugs. The culture period was 18 weeks.
Approximately 10% of the beads developed 1 or 2 large colonies, at week 18.
In order to quantify the cell loss, representative beads from the DMSO control, Paclitaxel and Docetaxel groups were sectioned and stained, using standard methods, in order to permit counting of cell nuclei. Results were normalized to the DMSO treated beads.
In the case of treatment with Paclitaxel, there was an initial loss over weeks 1-3, of about 25% of cells per colony. The majority of colonies did contain viable cells. […] In the case of docetaxel treated beads, these lost viable cells very rapidly, such that only 1-2 viable cells were present in the colonies 6 weeks after treatment.

CCC1=C[C@@H]2CN(C1)Cc1c([nH]c3ccccc13)[C@@](C(=O)OC)(c1cc3c(cc1OC)N(C)[C@H]1[C@@](O)(C(=O)OC)[C@H](OC(C)=O)[C@]4(CC)C=CCN5CC[C@]31[C@@H]54)C2 [Vinorelbine]
Effect (RENCA cells [1]; Treatment time 2 days, dose 0.1 μg/ml): −
Effect (RENCA cells [1]; Treatment time 2 days, dose 1 μg/ml): +/−
Effect (RENCA cells [1]; Treatment time 2 days, dose 10 μg/ml): +/−

N.N.[Cl][Pt][Cl] [Cisplatin]
Effect (RENCA cells [1]; Treatment time 1 hr, dose 60 ng/ml): −
Effect (RENCA cells [1]; Treatment time 1 hr, dose 600 ng/ml): −
Effect (RENCA cells [1]; Treatment time 1 hr, dose 6000 ng/ml): −

COc1cccc2c1C(=O)c1c(O)c3c(c(O)c1C2=O)C[C@@](O)(C(=O)CO)C[C@@H]3O[C@H]1C[C@H](N)[C@H](O)[C@H](C)O1 [Doxorubicin]
Effect (RENCA cells [1]; Treatment time 2 days, dose 5 μg/ml): +
Effect (RENCA cells [1]; Treatment time 2 days, dose 50 μg/ml): +
Effect (RENCA cells [1]; Treatment time 2 days, dose 100 μg/ml): +

CC(=O)O[C@H]1C(=O)[C@@]2(C)[C@H]([C@H](OC(=O)c3ccccc3)[C@]3(O)C[C@H](OC(=O)[C@H](O)[C@@H](NC(=O)c4ccccc4)c4ccccc4)C(C)=C1C3(C)C)[C@]1(OC(C)=O)CO[C@@H]1C[C@@H]2O [Paclitaxel]
Effect (RENCA cells [1]; Treatment time 1 day, dose 0.35 μg/ml): −
Effect (RENCA cells [1]; Treatment time 1 day, dose 3.5 μg/ml): +/−
Effect (RENCA cells [1]; Treatment time 1 day, dose 35 μg/ml): +/−
Destruction of cells within the encapsulated tumor colonies (RENCA cells [1]): did not destroy all of the cells
cell number at week 18 (RENCA cells [2]; 3.5 μg/ml, 18 weeks culture): return to the pre-treatment number of cells; also recorded: equivalent to the control DMSO beads
cell number in beads over time after treatment (RENCA cells [2]; 3.5 μg/ml, first 6 weeks post-treatment): loss of cells for 6 weeks
initial loss of cells per colony (RENCA cells [2]; weeks 1-3 after treatment, normalized to DMSO treated beads): about 25%

N.N.O=C([O-])C1(C(=O)[O-])CCC1.[Pt+2] [Carboplatin]
Effect (RENCA cells [1]; Treatment time 5 days, dose 25 μg/ml): +/−
Effect (RENCA cells [1]; Treatment time 5 days, dose 250 μg/ml): +
Effect (RENCA cells [1]; Treatment time 5 days, dose 2500 μg/ml): +

CN(Cc1cnc2nc(N)nc(N)c2n1)c1ccc(C(=O)N[C@@H](CCC(=O)O)C(=O)O)cc1 [Methotrexate]
Effect (RENCA cells [1]; Treatment time 1 day, dose 0.45 μg/ml): −
Effect (RENCA cells [1]; Treatment time 1 day, dose 4.5 μg/ml): −
Effect (RENCA cells [1]; Treatment time 1 day, dose 45 μg/ml): −

CC(=O)O[C@@]12CO[C@@H]1C[C@H](O)[C@@]1(C)C(=O)[C@H](O)C3=C(C)[C@@H](OC(=O)[C@H](O)[C@@H](NC(=O)OC(C)(C)C)c4ccccc4)C[C@@](O)([C@@H](OC(=O)c4ccccc4)[C@H]21)C3(C)C [Docetaxel]
Effect (RENCA cells [1]; Treatment time 1 day, dose 0.5 μg/ml): +/−
Effect (RENCA cells [1]; Treatment time 1 day, dose 5 μg/ml): +/−
Effect (RENCA cells [1]; Treatment time 1 day, dose 50 μg/ml): +/−
Destruction of cells within the encapsulated tumor colonies (RENCA cells [1]): did not destroy all of the cells
viable cells per colony (RENCA cells [2]; 5 μg/ml, 6 weeks post-treatment): 1-2 cells per colony
beads that developed 1 or 2 large colonies (RENCA cells [2]; 5 μg/ml): Approximately 10%
beads that developed 1 or 2 large colonies (RENCA cells [2]; 5 μg/ml, listed as docetaxel): about 10%
